Here are results for one compound from patent US8507454B2, “Methods and unit dose formulations for the inhalation administration of aminoglycoside antibiotics” (priority 2001, dated 2013).

Entries after “also recorded” stand apart in the source; their conditions may differ.

The test system of data set [1] is P. aeruginosa. As to conditions: cited from earlier work.
The nature of data set [2]: Example 1: urine tobramycin recovery. Type of data set: in vivo, human. As to conditions: 7 days after prestudy or previous TOBI dose, LOQ 1.0 μg/mL. As for the experimental part:
Urine specimens were collected and combined in a 24-hour collection container during the 12 hours before treatment (−12-0 hour period) and during 0-8 hour and 8-24 hour collection periods after treatment according to instructions provided in the Study Manual. Total urine volume for the collection period was recorded, and a 10 mL aliquot from each urine collection was retained and frozen for later analysis of urine tobramycin concentration.
The recovery of tobramycin in urine (in […]) during 0-8 hour and 8-24 hour collection periods was calculated as follows. urine tobramycin recovery (μg)=urine volume (mL)·urine tobramycin concentration (μg/mL)
Urine tobramycin recovery was normalized for each collection period according to TOBI dose as follows. dose-normalized urine tobramycin recovery (μg/mg)=[urine tobramycin recovery (μg)÷TOBI dose (mg)]
The percent of the TOBI dose excreted in urine in the 24-hour period following treatment was calculated as follows. % tobramycin excreted in urine =[(urinary recovery in μg÷1000 μg/mg)÷TOBI dose in mg]·100%.
Tobramycin concentrations in urine were measured by Abbott TDxFLx® assay [urine lower limit of quantitation (LOQ)=1.0 μg/mL].

A short description of data set [3]: Example 3: serum tobramycin pharmacokinetics. It is filed as in vivo. As to conditions: both sexes, human, inhaled, both formulations (300 mg TOBI, 420 mg TSI), read-out: Individual estimates of serum half-life, range. As for the experimental part:
A comparison was made of the safety, pharmacokinetics, aerosol delivery characteristics, and nebulization time of the conventional dose and inhalation delivery system (5 mL ampoule containing 300 mg tobramycin and 11.25 mg sodium chloride in sterile water for injection (TOBI® tobramycin solution for inhalation, Chiron Corporation, Seattle, Wash.), pH 6.0; administered with a PART LC PLUS™ jet nebulizer with a DeVilbiss PulmoAide™ compressor set to deliver an output pressure of 20 psi—the “control delivery system”) with a dose of 420 mg Tobramycin Solution for Inhalation at 120 mg/mL (excipient 3.5 mL of ¼ normal saline adjusted to a pH of 6.0±0.5; 420 mg in 3.5 mL) delivered by the PAM LC PLUS™ jet nebulizer with a Invacare MOBILAIRE™ compressor set to deliver an output pressure of 35 psi (the “experimental delivery system”).
The study was designed as an open label, randomized, single-dose, multicenter, two treatment, active-control, and parallel trial. […]
Serum Tobramycin Concentrations: Blood samples were collected at predose and at 0.167, 1, 2, 4, 6, and 8 h after the end of the nebulization period. […] Concentrations of tobramycin in serum were analyzed with a modified fluorescence polarization immunoassay (FPIA) method using the Abbott TDx®/TDxFLx® System. […] The lower limit of quantitation was 0.050 μg/mL. […]

For data set [4], the system named is Gram-negative bacteria. Conditions: Neu 1976; cited from earlier work.
A short description of data set [5]: Example 3: sputum tobramycin pharmacokinetics. As to conditions: both sexes, human, inhaled, both formulations (300 mg TOBI, 420 mg TSI), read-out: Individual estimates of sputum half-life, range. It is filed as in vivo. On the procedure:
A comparison was made of the safety, pharmacokinetics, aerosol delivery characteristics, and nebulization time of the conventional dose and inhalation delivery system (5 mL ampoule containing 300 mg tobramycin and 11.25 mg sodium chloride in sterile water for injection (TOBI® tobramycin solution for inhalation, Chiron Corporation, Seattle, Wash.), pH 6.0; administered with a PART LC PLUS™ jet nebulizer with a DeVilbiss PulmoAide™ compressor set to deliver an output pressure of 20 psi—the “control delivery system”) with a dose of 420 mg Tobramycin Solution for Inhalation at 120 mg/mL (excipient 3.5 mL of ¼ normal saline adjusted to a pH of 6.0±0.5; 420 mg in 3.5 mL) delivered by the PAM LC PLUS™ jet nebulizer with a Invacare MOBILAIRE™ compressor set to deliver an output pressure of 35 psi (the “experimental delivery system”). […]
Sputum Tobramycin Concentrations: Sputum samples were expectorated by patients from a deep cough and collected before day 1 dosing (predose) and at 0.25, 1, 2, 4, and 8 h after the end of the nebulization period. […] The concentration of tobramycin was analyzed using reversed-phase high-performance liquid chromatography (HPLC) with ultraviolet detection. […] After addition of 600 μL of 60/40 acetonitrile/water (v/v), 50 μL was analyzed by HPLC. […]

Data set [6] concerns P. aeruginosa isolates. As to conditions: initial sputum cultures, Children's Hospital CF Center, Seattle, 1993; cited from earlier work.

In the case of `NC[C@H]1O[C@H](O[C@H]2[C@H](O)[C@@H](O[C@H]3O[C@H](CO)[C@@H](O)[C@H](N)[C@H]3O)[C@H](N)C[C@@H]2N)[C@H](N)C[C@@H]1O` [tobramycin], the “Average decrease in P. aeruginosa density, Week 0 to Week 20” value in data set [1] (300 mg inhaled tobramycin twice daily, 28 days on/28 days off, Ramsey 1999) is on record as 0.8 log10. Besides, in data set [1] (300 mg inhaled tobramycin twice daily, Ramsey 1999), the “Average decrease in P. aeruginosa density, Week 0 to Week 4” value is recorded as 1.9 log10. In addition, in data set [1] (600 mg tid aerosolized tobramycin, 71 CF patients, crossover trial, Ramsey 1993), the “Sputum density of P. aeruginosa” value is recorded as “significant reduction”. In addition, the “Measurable predose urine tobramycin concentration during period listed, individual patients” value in data set [2] (after prestudy tobramycin) is “Per 1 - 1.82 μg/mL; also recorded: Per 1 - 3.14 μg/mL; also recorded: Per 1 - 1.74 μg/mL; also recorded: Per 1 - 2.72 μg/mL; also recorded: Per 1 - 3.80 μg/mL”; in data set [2] (after previous TOBI 30 mg) it was “Per 3 - 1.20 μg/mL”; in data set [2] (after previous TOBI 60 mg), “Per 3 - 1.30 μg/mL; also recorded: Per 3 - 13.22 μg/mL”; in data set [2] (after previous TOBI 90 mg) it was “Per 2 - 3.10 μg/mL”; in data set [2] (after previous TOBI 300 mg), “Per 2 - 2.06 μg/mL; also recorded: Per 2 - 2.58 μg/mL; also recorded: Per 2 - 1.48 μg/mL; also recorded: Per 2 - 1.58 μg/mL; also recorded: Per 2 - 2.28 μg/mL; also recorded: Per 3 - 2.70 μg/mL; also recorded: Per 3 - 1.16 μg/mL; also recorded: Per 3^c - 1.12 μg/mL; also recorded: Per 3 - 2.08 μg/mL”. The half-life was 66 to 408 min in data set [3] and 28.8 to 568 min in data set [5]. Moreover, in data set [4], the “Concentrations effective in inhibiting the growth of many Gram-negative bacteria” value is < 4 µg/mL. In addition, the “MICs of 90% of isolates” value in data set [6] was ≤ 16 µg/mL. In addition, the “MICs of 98% of all isolates” value in data set [6] was ≤ 128 µg/mL.

By half-life is commonly meant the time in which the quantity being followed falls by half.
